Patent US10577371B2, “Small molecule histone methyltransferase SUV39H1 inhibitor and uses thereof” (Augusta University Research Institute, Inc., priority 2017, dated 2020)

Key:
[1] = target: T1, recombinant human SUV39H1 (Homo sapiens, UniProt O43463); assay: HMTase EC50 assay with recombinant human SUV39H1 (Reaction Biology Corp.); assay type: biochemical; details: 10-dose, 3-fold serial dilutions; S-(methyl-3H) Adenosyl-L-Methionine; H3 peptide (N1-21); read-out: EC50 against recombinant human SUV39H1 in vitro
T1 construct: purchased Reaction Biology Corp. (Malvern Pa.)
T1 sequence (O43463 1-412): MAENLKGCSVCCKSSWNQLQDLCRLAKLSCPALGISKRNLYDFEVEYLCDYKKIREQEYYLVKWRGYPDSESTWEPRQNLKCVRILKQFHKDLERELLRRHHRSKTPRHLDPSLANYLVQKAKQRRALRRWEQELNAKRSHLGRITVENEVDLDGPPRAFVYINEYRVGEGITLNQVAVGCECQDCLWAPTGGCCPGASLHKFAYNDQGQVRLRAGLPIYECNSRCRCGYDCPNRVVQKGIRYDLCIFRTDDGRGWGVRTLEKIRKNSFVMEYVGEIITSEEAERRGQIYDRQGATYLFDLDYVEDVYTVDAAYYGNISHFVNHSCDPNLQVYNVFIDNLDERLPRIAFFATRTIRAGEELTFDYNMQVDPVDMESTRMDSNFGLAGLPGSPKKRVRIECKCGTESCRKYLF
Experimental: F5446 was sent to Reaction Biology Corp. (Malvern Pa.) to validate its inhibitory activity and to determine its EC50 for SUV39H1. F5446 was assayed in a 10-dose EC50 mode with 3-fold serial dilutions using recombinant human SUV39H1 protein as the methyltransferase, S-(methyl-3H) Adenosyl-L-Methionine as the substrate, and H3 peptide (N1-21) as the template in the presence of indicated doses of F5446. The EC50 was calculated with Prizm Program.

[2] = tested on: SW620 and LS411N cells; assay: Apoptosis of human colon carcinoma cells, PI/annexin V flow cytometry; assay type: cell-based; details: 0.01, 0.05, 0.25 and 1 μM for 2 days
Experimental: SW620 and LS411N cells were cultured in the presence of F5446 at doses of 0.01, 0.05, 0.25, and 1 μM for 2 days. Cells were stained with propidium iodide (“PI”) and annexin V and analyzed for apoptosis by flow cytometry.
Apoptotic cell death was calculated as the difference between the percentage of PI^+ Annexin V^+ cells in the presence of F5446 and the percentage of PI^+ Annexin V^+ cells in the absence of F5446.

[3] = tested on: Fas in SW620 and LS411N cells; assay: Fas protein level on tumor cell surface by flow cytometry; assay type: cell-based, human; details: 3 days, 25 and 250 nM
Experimental: SW620 and LS411N cells were cultured in the presence of F5446 for 3 days. Fas protein levels were analyzed by flow cytometry (FIG. 12A-12B).

[4] = tested on: SW620 and LS411N cells; assay: Sensitisation of colon carcinoma cells to FasL-induced apoptosis; assay type: cell-based, human; details: F5446 at sublethal dose plus FasL, 3 days
Experimental: SW620 and LS411N cells were cultured in the presence of F5446 and FasL, either alone or in combination, for 3 days. Cells were stained with PI and Annexin V and analyzed for apoptosis.
Apoptotic cell death was calculated as the difference between the percentage of PI^+ Annexin V^+ cells in the presence of F5446, FasL, or both and the percentage of PI^+ Annexin V+ cells in the absence of F5446 or FasL.

[5] = Toxicity of F5446 in mice: survival and serum liver enzyme profile; assay type: in vivo
Experimental: F5446 was injected into mice at a dose of 10 mg/kg body weight every 2 days for 6 days. Mouse survival was recorded. Serum was collected from the mice and analyzed for liver enzyme profiles at the University of Georgia Veterinary Diagnostic Laboratories.

[6] = tested on: H3K9me3 at the FAS promoter region in SW620 and LS411N cells; assay: ChIP of H3K9me3 at the FAS promoter region in colon carcinoma cells; assay type: cell-based, human; details: 25 and 250 nM for 2 days
Experimental: SW620 and LS411N cells were treated with F5446 at 25, and 250 nM for 2 days and analyzed by ChIP using H3K9me3-specific antibody. The H3K9me3 antibody-immunoprecipitated DNA was amplified by PCR with FAS promoter DNA-specific primers and normalized to input genomic DNA.

[7] = tested on: CD3+ T cells from spleens of C57BL/6 mice; assay: H3K9me3 ChIP and effector expression in activated CD3+ T cells; assay type: cell-based; details: activated mouse CD3+ T cells
Experimental: CD3^+ T cells were purified from spleens of C57BL/6 mice. The cells were stimulated in anti-CD3/CD28-coated plates for 2 days in the absence or presence of F5446 (50 nM). The resting, stimulated and treated T cells were then analyzed by ChIP (Chromatin Immunoprecipitation) with anti-H3K9me3 antibody and gene-specific PCR primers.

[8] = tested on: MC38 and CT26 colon carcinoma tumors; assay: Colon carcinoma growth in vivo, MC38 in C57BL/6 and CT26 in BALB/c mice; details: F5446 10 mg/kg
Experimental: Two different tumor cells were injected into two different strains of mice. MC38 cells (1.5×10^5 cells/mouse) were injected to thirty C57BL/6 mice subcutaneously. CT26 cells (2×10^5 cells/mouse) were injected to thirty BALB/c mice subcutaneously. Twenty mice from each strain with relatively similar sizes of tumors were randomized into four groups at day 8 after tumor cell injection. The four groups of tumor-bearing mice were treated with IgG/solvent (control), […] (10 mg/kg), anti-PD-1 mAb ([…]), and […]+anti-PD-1 mAb, respectively, every two days for 14 days.

[9] = tested on: CD8+ CTLs from CT26 tumor tissues; assay: H3K9me3 ChIP and qPCR in tumor-infiltrating CD8+ CTLs of CT26 tumor bearing mice; assay type: in vivo; details: CD8+ CTLs from CT26 tumors, F5446-treated mice
Experimental: CD8^+ CTLs were isolated from tumor tissues of the control and the F5446-treated groups of CT26 tumor bearing mice (from Example 13). ChIP analysis of H3K9me3 level in the promoter regions of GZMB, PRF1, FASLG and IFNG was performed. Further a qPCR analysis was performed to determine the expression levels of all four promoter regions.

[10] = background statement; cited from earlier work
[11] = tested on: AB1-HA tumor model; details: CTX treatment at Day 9; cited from earlier work
[12] = mouse serum, 10 mg/kg every 2 days for 6 days
[13] = MC38/C57BL/6 and CT26/BALB/c, anti-PD-1 mAb 200 mg/mouse, every two days for 14 days

What does the source list for `COC(=O)c1cc2c(n1S(=O)(=O)c1ccc(Cl)cc1)C(=O)C(=O)c1[nH]cc(C(=O)OCc3ccccc3)c1-2` [F5446, 1-Benzyl 7-methyl 6-(4-chlorobenzenesulfonyl)-4,5-dioxo-3H,4H,5H,6H-pyrrolo[3,2-e]indole-1,7-dicarboxylate]?
EC50 [1]: 496 nM; apoptotic cell death [2]: induced human colon carcinoma cell death in a dose-dependent manner; tumor cell surface Fas expression (MFI) [3]: up-regulated tumor cell surface Fas expression; sensitivity to FasL-induced apoptosis [4]: significantly increased human colon carcinoma cells to FasL-induced apoptosis; survival rate ([5]; mice, 10 mg/kg body weight every 2 days for 6 days): 100%; liver enzyme profile, overall finding ([5]; mice, 10 mg/kg every 2 days for 6 days): did not cause toxic levels of liver enzymes in vivo; ALP [5, 12]: 60.3 U/L; ALT [5, 12]: 71.3 U/L; AST [5, 12]: 444.3 U/L; Albumin [5, 12]: 3.3 g/dL; Cholesterol [5, 12]: 119 mg/dL; GGT [5, 12]: <3 U/L; Total Bilirubin [5, 12]: 0.1 mg/dL; Total protein [5, 12]: 5.7 g/dL; H3K9me3 at the FAS promoter region [6]: inhibits H3K9me3 at the FAS promoter region; H3K9me3 levels in the promoter regions of GZMB, PRF1, FASLG and IFNG ([7]; F5446 50 nM, 2 days, ChIP): reduced H3K9me3 levels; expression of GZMB, PRF1, FASLG and IFNG ([7]; increasing doses of F5446): increased expression of all four effector genes in a dose-dependent manner; established tumor growth over time (tumor volume) [8, 13]: suppressed the established tumor growth in a time-dependent manner; tumor growth as measured by tumor size and tumor weight [8, 13]: significantly reduced tumor growth; expression levels of granzymeB, perforin, FasL and IFNγ in tumor tissues (qPCR) ([8]; tumor tissues of C57BL/6 and BALB/c mice): significantly increased; expression levels of granzymeB, perforin, FasL and IFNγ in tumor-infiltrating CTLs (qPCR) [9]: significantly increased; H3K9me3 levels in the promoter regions of GZMB, PRF1, FASLG and IFNG in tumor-infiltrating CTLs ([9]; ChIP): decreased H3K9me3 levels

Which toxicity in vivo [10] does the source give for `CN1C(=O)[C@@]23C[C@]4([C@]56C[C@@]78SS[C@@](CO)(C(=O)N7[C@H]5Nc5ccccc56)N(C)C8=O)c5ccccc5N[C@@H]4N2C(=O)[C@]1(CO)SS3` [chaetocin] here?
The toxicity in vivo was “toxic in vivo”.

Which toxicity in vivo [10] does the source give for `CN1C(=O)[C@]23SS[C@@]1(C)C(=O)N2[C@H]1Nc2ccccc2[C@@]1([C@@]12c4ccccc4N[C@@H]1N1C(=O)[C@@]4(C)SS[C@]1(C(=O)N4C)[C@H]2O)[C@@H]3O` [verticillin A] here?
The toxicity in vivo was “toxic in vivo”.

For `O=P1(N(CCCl)CCCl)NCCCO1` (stereo not shown) [CTX, Cyclophosphamide], which cure rate [11] is on record?
The cure rate was 75%.
